Experiments:
[1] = test system: normal NK cells expanded with K562-aAPC; assay: percent inhibition of viability; higher = more inhibition; settings: 72 h, IL-2 2.5 ng/mL
Method: (§1)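 Drug sensitivity and resistance testing on K562-aAPC-expanded normal NK cells: 5 concentrations (10-fold steps over a 10,000-fold range), 72 h at 37 °C, viability by CellTiter-Glo normalised to DMSO and benzethonium chloride controls; DSS from the fitted curve.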

DERL-7 (IL-2 2.5 ng/mL) [2] = assay: as above; settings: 72 h
IMC-1 (IL-2 20 ng/mL) [3] = assay: as above; settings: 72 h
KAI3 (IL-2 2.5 ng/mL) [4] = assay: as above; settings: 72 h
KHYG-1 (IL-2 2.5 ng/mL) [5] = assay: as above; settings: 72 h
NK-92 (IL-2 2.5 ng/mL) [6] = assay: as above; settings: 72 h
NK-YS (IL-2 2.5 ng/mL) [7] = assay: as above; settings: 72 h
NKL (IL-2 2.5 ng/mL) [8] = assay: as above; settings: 72 h
SNK-6 (IL-2 2.5 ng/mL) [9] = assay: as above; settings: 72 h
YT (IL-2 2.5 ng/mL) [10] = assay: as above; settings: 72 h
[11] = test system: normal primary NK cells, pool 1 (3 donors) (IL-2 2.5 ng/mL); assay: as above; settings: 72 h
[12] = test system: normal primary NK cells, pool 1 (3 donors), resting (IL-2 0 ng/mL); assay: as above; settings: 72 h
[13] = test system: normal primary NK cells, pool 2 (3 donors) (IL-2 2.5 ng/mL); assay: as above; settings: 72 h
[14] = test system: normal primary NK cells, pool 3 (3 donors) (IL-2 2.5 ng/mL); assay: as above; settings: 72 h
[15] = test system: normal NK cells expanded with K562-aAPC; assay: drug sensitivity score (DSS) (DSS units); higher = more sensitive; extreme values may be limits of the assay; settings: 72 h; IL-2 2.5 ng/mL
Method: as §1

DERL-7 (IL-2 2.5 ng/mL) [16] = assay: as above; settings: 72 h
IMC-1 (IL-2 20 ng/mL) [17] = assay: as above; settings: 72 h
KAI3 (IL-2 2.5 ng/mL) [18] = assay: as above; settings: 72 h
KHYG-1 (IL-2 2.5 ng/mL) [19] = assay: as above; settings: 72 h
NK-92 (IL-2 2.5 ng/mL) [20] = assay: as above; settings: 72 h
NK-YS (IL-2 2.5 ng/mL) [21] = assay: as above; settings: 72 h
NKL (IL-2 2.5 ng/mL) [22] = assay: as above; settings: 72 h
SNK-6 (IL-2 2.5 ng/mL) [23] = assay: as above; settings: 72 h
YT (IL-2 2.5 ng/mL) [24] = assay: as above; settings: 72 h
[25] = test system: normal primary NK cells, pool 1 (3 donors) (IL-2 2.5 ng/mL); assay: as above; settings: 72 h
[26] = test system: normal primary NK cells, pool 1 (3 donors), resting (IL-2 0 ng/mL); assay: as above; settings: 72 h
[27] = test system: normal primary NK cells, pool 2 (3 donors) (IL-2 2.5 ng/mL); assay: as above; settings: 72 h
[28] = test system: normal primary NK cells, pool 3 (3 donors) (IL-2 2.5 ng/mL); assay: as above; settings: 72 h

COc1c(C)cnc(Cn2cnc3c(Cl)nc(N)nc32)c1C [BIIB021] (max concentration tested 10000 nM)
percent inhibition of viability [%]
Settings | 1 nM | 10 nM | 100 nM | 1000 nM | 10000 nM
DERL-7 (IL-2 2.5 ng/mL) [2] | 2.38 | 6.56 | 62.9 | 99.9 | 101
IMC-1 (IL-2 20 ng/mL) [3] | 1.18 | -3.95 | 26.6 | 99.6 | 101
KAI3 (IL-2 2.5 ng/mL) [4] | -2.5 | 4.1 | 75.8 | 98.8 | 102
KHYG-1 (IL-2 2.5 ng/mL) [5] | -2.8 | -2.89 | 77.1 | 99.3 | 104
NK-92 (IL-2 2.5 ng/mL) [6] | -8.24 | -13.2 | 51.8 | 95.9 | 101
NK-YS (IL-2 2.5 ng/mL) [7] | 0.34 | 0.63 | 61.5 | 97.2 | 102
NKL (IL-2 2.5 ng/mL) [8] | -6.72 | -10.3 | 45.6 | 85.8 | 86.2
SNK-6 (IL-2 2.5 ng/mL) [9] | 19 | -3.8 | 92.6 | 91 | 90.3
YT (IL-2 2.5 ng/mL) [10] | -3.19 | -0.41 | 48.3 | 90.5 | 94.5
[1] | -1.27 | -2.67 | 62.1 | 98.6 | 100
[11] | -3.67 | 7.97 | 27.8 | 79 | 88
[12] | 15.4 | 12.6 | 10.4 | 36.1 | 51
[13] | -9.44 | -10.5 | 39.7 | 81.5 | 83.5
[14] | -13.8 | -15 | 16.2 | 78.9 | 87.8

Settings | drug sensitivity score
DERL-7 (IL-2 2.5 ng/mL) [16] | 25.7
IMC-1 (IL-2 20 ng/mL) [17] | 22
KAI3 (IL-2 2.5 ng/mL) [18] | 27.3
KHYG-1 (IL-2 2.5 ng/mL) [19] | 26.8
NK-92 (IL-2 2.5 ng/mL) [20] | 24.4
NK-YS (IL-2 2.5 ng/mL) [21] | 25.3
NKL (IL-2 2.5 ng/mL) [22] | 21.3
SNK-6 (IL-2 2.5 ng/mL) [23] | 28
YT (IL-2 2.5 ng/mL) [24] | 22.8
[15] | 25.3
[25] | 17.8
[26] | 8.4
[27] | 20.3
[28] | 16.6

COc1cc2c(NC3CCN(C(C)C)CC3)nc(N3CCC(F)(F)CC3)nc2cc1OCCCN1CCCC1 [UNC0642] (max concentration tested 10000 nM)
percent inhibition of viability [%]
Settings | 1 nM | 10 nM | 100 nM | 1000 nM | 10000 nM
DERL-7 (IL-2 2.5 ng/mL) [2] | -0.28 | 1.37 | -1.94 | 0.05 | 99.9
IMC-1 (IL-2 20 ng/mL) [3] | -11.9 | -4.05 | -6.38 | 8.61 | 100
KAI3 (IL-2 2.5 ng/mL) [4] | -0.96 | 1.92 | 10.1 | 48.5 | 103
KHYG-1 (IL-2 2.5 ng/mL) [5] | -4.39 | -1.22 | -6.31 | 6.97 | 28.1
NK-92 (IL-2 2.5 ng/mL) [6] | -11 | -2.07 | -11.4 | 3.52 | 49
NK-YS (IL-2 2.5 ng/mL) [7] | -3.38 | -1.95 | 0.35 | 8.5 | 101
NKL (IL-2 2.5 ng/mL) [8] | -6.06 | -13.9 | -8.65 | 22.1 | 105
SNK-6 (IL-2 2.5 ng/mL) [9] | -9.05 | 11.3 | 2.25 | 25.3 | 99.3
YT (IL-2 2.5 ng/mL) [10] | -6.39 | -3.26 | -2.23 | 4.47 | 74.2
[1] | -4.11 | -7.96 | -1.75 | 10.2 | 100
[11] | -1.76 | 13.1 | 19.9 | 18.1 | 101
[12] | 9.19 | 22.7 | 14 | 28.9 | 98.6
[13] | -4.62 | 6.45 | -2.04 | -4.01 | 99.7
[14] | -1.76 | 4.79 | 4.65 | -5.45 | 100

Settings | drug sensitivity score
DERL-7 (IL-2 2.5 ng/mL) [16] | 5.6
IMC-1 (IL-2 20 ng/mL) [17] | 6.92
KAI3 (IL-2 2.5 ng/mL) [18] | 11.3
KHYG-1 (IL-2 2.5 ng/mL) [19] | 2.2
NK-92 (IL-2 2.5 ng/mL) [20] | 3.1
NK-YS (IL-2 2.5 ng/mL) [21] | 6.94
NKL (IL-2 2.5 ng/mL) [22] | 9.05
SNK-6 (IL-2 2.5 ng/mL) [23] | 9.35
YT (IL-2 2.5 ng/mL) [24] | 4.75
[15] | 7.22
[25] | 8.52
[26] | 9.04
[27] | 5.23
[28] | 5.16

NC(=O)N1CCC(CC(=O)N2CCC([C@H]3c4ncc(Br)cc4CCc4cc(Cl)cc(Br)c43)CC2)CC1 [Lonafarnib] (max concentration tested 10000 nM)
percent inhibition of viability [%]
Settings | 1 nM | 10 nM | 100 nM | 1000 nM | 10000 nM
DERL-7 (IL-2 2.5 ng/mL) [2] | 3.48 | 0.48 | 5.47 | 44.5 | 73
IMC-1 (IL-2 20 ng/mL) [3] | -4.85 | -3.21 | -6.32 | -1.06 | 36.6
KAI3 (IL-2 2.5 ng/mL) [4] | -4.05 | 0.27 | 9.71 | 30.5 | 38.6
KHYG-1 (IL-2 2.5 ng/mL) [5] | -3.98 | -2.08 | 3.33 | 67.6 | 83.9
NK-92 (IL-2 2.5 ng/mL) [6] | -13 | -12.8 | -0.32 | 39.8 | 57.2
NK-YS (IL-2 2.5 ng/mL) [7] | -6.93 | -2.78 | 13.2 | 56.3 | 79.7
NKL (IL-2 2.5 ng/mL) [8] | -11.3 | -10.4 | -4.09 | 19.2 | 37.3
SNK-6 (IL-2 2.5 ng/mL) [9] | 3.51 | 1.11 | 8.58 | 31.1 | 33.3
YT (IL-2 2.5 ng/mL) [10] | -2.94 | -2.27 | 4.51 | 28.1 | 60.1
[1] | -2.48 | -4.83 | 1.81 | 10.5 | 25.2
[11] | -10.4 | -3.37 | 6.08 | 19.4 | 88.9
[12] | -4.29 | 2.54 | 32.3 | 35.8 | 90
[13] | -4.12 | 2.21 | 1.62 | 17.7 | 73.4
[14] | -2.09 | 0.34 | 2.3 | 9.06 | 52.3

Settings | drug sensitivity score
DERL-7 (IL-2 2.5 ng/mL) [16] | 9.51
IMC-1 (IL-2 20 ng/mL) [17] | 1.66
KAI3 (IL-2 2.5 ng/mL) [18] | 6.28
KHYG-1 (IL-2 2.5 ng/mL) [19] | 13
NK-92 (IL-2 2.5 ng/mL) [20] | 7.81
NK-YS (IL-2 2.5 ng/mL) [21] | 12.2
NKL (IL-2 2.5 ng/mL) [22] | 4.21
SNK-6 (IL-2 2.5 ng/mL) [23] | 6.27
YT (IL-2 2.5 ng/mL) [24] | 6.47
[15] | 1.95
[25] | 8.02
[26] | 11.6
[27] | 6.83
[28] | 4.3

Reference: the supplement of paper PMC5908809
